Assay results from patent US11766470B2, “Manufacture, formulation and dosing of apraglutide” (VectivBio AG, priority 2020, dated 2023).
Values joined by “and” are separate entries in the source; they are usually repeats but may differ in a detail not shown here. Equal values may be shown once. Square brackets hold non-standard residues; d marks the D form. Peptide text beside a SMILES is read from it. ξ: configuration not given here. Ile(3ξ) = CCC(C)[C@H](N)C(=O)O; Thr(3ξ) = CC(O)[C@H](N)C(=O)O; Nle = CCCC[C@H](N)C(=O)O

Tested on: patients with SBS-IF or SBS-II
Experiment: Phase 2 open-label metabolic balance trial in SBS-IF and SBS-II patients (Example 6): 72-hour metabolic balance, body composition, plasma L-citrulline
Assay type: in vivo, human
Details: 5 mg once weekly
Experimental: Treatment with glucagon-like peptide-2 (GLP-2) analogs promotes intestinal adaptation in patients with short bowel syndrome (SBS). Apraglutide is a novel long-acting GLP-2 analog designed to enable once weekly dosing. This Phase 2 trial investigated the safety and efficacy of once weekly 5 mg apraglutide in patients with SBS intestinal failure (SBS-IF) and SBS intestinal insufficiency (SBS-II). In this open-label trial, 8 adult patients with SBS-IF (n=4) or SBS-II (n=4) and a fecal wet weight of >1500 g/day were treated with once weekly subcutaneous 5 mg apraglutide for 4 weeks. Safety was the primary endpoint. As secondary endpoints changes were examined from baseline in intestinal absorption of wet weight, energy (measured by bomb calorimetry) and electrolytes as well as fecal wet weight and urine production using 72-hour metabolic balance studies. Common treatment-related adverse events were consistent with the physiological effect of GLP-2 and included reduced stoma output (n=6), stoma complication (n=6), nausea (n=5), flatulence (n=4), polyuria (n=3) and abdominal pain (n=3).
A total of nine adult patients (aged ≥18 to ≤80 years) with SBS were screened, eight of whom enrolled in the trial: four patients had SBS-II and four patients had SBS-IF. Both subgroups of patients were included to investigate the safety and efficacy of apraglutide across the disease spectrum. Patient eligibility was assessed during a screening visit. Main inclusion criteria were SBS secondary to surgical resection of the small intestine with or without colon; at least six months since last surgical bowel resection; and a severe degree of malabsorption, defined as a fecal wet weight output≥1,500 g/day and a urine volume production<2000 mL/day.
Fecal output and urine volume production were confirmed during baseline examinations. Patients were excluded if they had clinical signs of active inflammatory bowel disease, a history of cancer within five years or an inadequate hepatic-, kidney- or heart function.
The contents of the buckets were weighed, processed intro dry matter, and analyzed as previously described: energy by bomb calorimetry, nitrogen by Kjeldahl's method, lipid by a modified Van de Kamer titration technique, carbohydrate by Englyst's method, sodium and potassium by flame photometry and calcium and magnesium by atomic absorption spectrometry. A 24-hour average was calculated based on the three 24-hour periods. Absolute changes were calculated as the difference between the baseline and the post-treatment value. Relative changes were calculated as absolute changes divided by baseline values multiplied by 100.
Body weight was measured using a levelled platform scale. Body composition was measured by dual-energy x-ray absorptiometry (Norland XR-36 DXA densitometer, Norland, Ford Atkinson, WI, USA) at baseline and post-treatment.
Blood samples for analysis of the plasma concentration of apraglutide and plasma concentration of fasting L-citrulline, a marker of enterocyte mass, were collected at baseline, during first and second injection (pre-dose and at sequential timepoints), four days after first injection and at the end of treatment. Blood sampling for apraglutide pharmacokinetics was also performed after the fourth and last injection covering 96 hours. […] Blood samples for anti-apraglutide antibodies were collected at baseline, at the end of treatment and at the 4-6 weeks follow-up visit. All eight patients tested negative for anti-apraglutide antibodies at baseline.
The primary endpoint of this trial was safety. Secondary endpoints were absolute and relative changes from baseline in dietary intake, fecal excretion and absorption of wet weight, energy, macronutrients and electrolytes, urine production, urine electrolyte excretion, body weight, body composition, bone mineral content, plasma L-citrulline as well as pharmacokinetic profiles. […]

[1] = comparison with other GLP-2 analogs

Structure (SMILES): CCCC[C@H](NC(=O)[C@H](CCC(=O)O)NC(=O)[C@H](CC(=O)O)NC(=O)[C@H](CO)NC(=O)[C@H](Cc1ccccc1)NC(=O)[C@H](CO)NC(=O)CNC(=O)[C@H](CC(=O)O)NC(=O)CNC(=O)[C@@H](N)Cc1c[nH]cn1)C(=O)N[C@H](Cc1ccccc1)C(=O)N[C@H](C(=O)N[C@H](C(=O)N[C@@H](CC(C)C)C(=O)N[C@@H](CC(=O)O)C(=O)N[C@@H](CC(C)C)C(=O)N[C@@H](CC(C)C)C(=O)N[C@@H](C)C(=O)N[C@@H](C)C(=O)N[C@@H](CCCNC(=N)N)C(=O)N[C@@H](CC(=O)O)C(=O)N[C@@H](Cc1ccccc1)C(=O)N[C@H](C(=O)N[C@@H](CC(N)=O)C(=O)N[C@@H](Cc1c[nH]c2ccccc12)C(=O)N[C@@H](CC(C)C)C(=O)N[C@H](C(=O)N[C@@H](CCC(N)=O)C(=O)N[C@H](C(=O)N[C@@H](CCCCN)C(=O)N[C@H](C(=O)N[C@H](C(=O)N[C@@H](CC(=O)O)C(N)=O)C(C)O)C(C)CC)C(C)O)C(C)CC)C(C)CC)C(C)CC)C(C)O (stereo partly drawn) [apraglutide, L-histidyl-glycyl-L-aspartyl-glycyl-L-seryl-L-phenylalanyl-L-seryl-L-aspartyl-L-glutamyl-L-norleucyl-D-phenylalanyl-L-threonyl-Lisoleucyl-L-leucyl-L-aspartyl-L-leucyl-L-leucyl-L-alanyl-L-alanyl-L-arginyl-L-aspartyl-L-phenylalanyl-L-isoleucyl-L-asparaginyl-Ltryptophanyl-L-leucyl-L-isoleucyl-L-glutaminyl-L-threonyl-L-lysyl-L-isoleucyl-L-threonyl-Laspartic acid amide] (H-HGDGSFSDE[Nle][dF][Thr(3ξ)][Ile(3ξ)]LDLLAARDF[Ile(3ξ)]NWL[Ile(3ξ)]Q[Thr(3ξ)]K[Ile(3ξ)][Thr(3ξ)]D-NH2)
- Body weight increase from baseline (4 weeks): 1.8 kg
- Bone mineral content change from baseline (4 weeks): -20 g
- Calcium, absorption, change from baseline (4 weeks): 11 (−13 to 35); mmol/day
- Calcium, dietary intake, change from baseline (4 weeks): −2 (−5 to 2); mmol/day
- Calcium, fecal output, change from baseline (4 weeks): −13 (−36 to 11); mmol/day
- Calcium, urine excretion, change from baseline (4 weeks): 0 (−1 to 1) mmol/day
- Carbohydrate, absorption, change from baseline (4 weeks): 518 (112 to 924); kJ/day
- Carbohydrate, dietary intake, change from baseline (4 weeks): 154 (−268 to 575); kJ/day
- Carbohydrate, fecal output, change from baseline (4 weeks): −365 (−772 to 43); kJ/day
- Energy, dietary intake, change from baseline (4 weeks): 154 (−1,006 to 1,314); kJ/day
- Fat mass decrease from baseline (4 weeks): 1.1 kg
- Lean body mass increase from baseline (4 weeks): 1.7 kg
- Lipid, absorption, change from baseline (4 weeks): 376 (61 to 691); kJ/day
- Lipid, dietary intake, change from baseline (4 weeks): 67 (−638 to 771); kJ/day
- Lipid, fecal output, change from baseline (4 weeks): −309 (−969 to 351) kJ/day
- Magnesium, absorption, change from baseline (4 weeks): 0 (−9 to 9); mmol/day
- Magnesium, dietary intake, change from baseline (4 weeks): 1 (−2 to 3); mmol/day
- Magnesium, fecal output, change from baseline (4 weeks): 0 (−9 to 9); mmol/day
- Magnesium, urine excretion, change from baseline (4 weeks): 1 (−1 to 2), mmol/day
- Plasma L-citrulline, absolute increase from baseline (4 weeks): 15.2 µmol/L
- Plasma L-citrulline, relative increase from baseline (4 weeks): 66%
- Potassium, absorption, change from baseline (4 weeks): 18 (4 to 32; p < 0.05) mmol/day and 18 (4 to 32); mmol/day
- Potassium, dietary intake, change from baseline (4 weeks): 4 (−5 to 12); mmol/day
- Potassium, fecal output, change from baseline (4 weeks): −15 (−32 to 3); mmol/day
- Potassium, urine excretion, change from baseline (4 weeks): 13 (6 to 20); mmol/day
- Protein, absorption, change from baseline (4 weeks): 104 (−205 to 412); kJ/day
- Protein, dietary intake, change from baseline (4 weeks): −41 (−274 to 191); kJ/day
- Protein, fecal output, change from baseline (4 weeks): −145 (−497 to 207); kJ/day
- Sodium, absorption, change from baseline (4 weeks): 38 (3 to 74; p < 0.05) mmol/day and 38 (3 to 74); mmol/day
- Sodium, dietary intake, change from baseline (4 weeks): −5 (−30 to 21); mmol/day
- Sodium, fecal output, change from baseline (4 weeks): −43 (−92 to 6); mmol/day
- Sodium, urine excretion, change from baseline (4 weeks): 27 (5 to 49); mmol/day
- Wet weight, absorption, change from baseline (4 weeks): 741 (194 to 1287; p < 0.05) g/day and 741 (194 to 1,287); g/day
- Wet weight, dietary intake, change from baseline (4 weeks): 61 (−84.0 to 207); g/day
- Wet weight, fecal output, change from baseline (4 weeks): −680 (−1200 to −159; p < 0.05) ^ g/day and −680 (−1,200 to −159); g/day
- Wet weight, urine (urine production), change from baseline (4 weeks): 560 (72 to 1048; p < 0.05) g/day and 560 (72 to 1,048); g/day
- Energy, absorption, change from baseline (4 weeks, bomb calorimetry): 1,095 kJ/day
- Potassium, absorption, change from baseline (4 weeks, listed as Apraglutide): 18 mmol/day
- Potassium, urine excretion, change from baseline (4 weeks, listed as Apraglutide): 13 mmol/day
- Sodium, absorption, change from baseline (4 weeks, listed as Apraglutide): 38 mmol/day
- Sodium, urine excretion, change from baseline (4 weeks, listed as Apraglutide): 27 mmol/day
- Wet weight, absorption, change from baseline (4 weeks, listed as Apraglutide): 741 g/day
- Wet weight, fecal output, change from baseline (4 weeks, listed as Apraglutide): -680 g/day
- Wet weight, urine (urine production), change from baseline (4 weeks, listed as Apraglutide): 560 g/day
- Change from baseline increase in urinary input [1]: 140.1%
- Change in baseline in energy absorption [1]: 1,074 kj/day
- Change in baseline in wet weight absorption [1]: 760.4 g/day
